Assay [1] addresses T1, complement C5a receptor 1 (C5aR1) (Homo sapiens, UniProt P21730).
T1 construct: β-galactosidase fragment (PathHunter enzyme complementation); host or cells: CHO-K1 (PathHunter CHO-K1 C5aR1 β-arrestin cell line)
T1 sequence (P21730 1-350): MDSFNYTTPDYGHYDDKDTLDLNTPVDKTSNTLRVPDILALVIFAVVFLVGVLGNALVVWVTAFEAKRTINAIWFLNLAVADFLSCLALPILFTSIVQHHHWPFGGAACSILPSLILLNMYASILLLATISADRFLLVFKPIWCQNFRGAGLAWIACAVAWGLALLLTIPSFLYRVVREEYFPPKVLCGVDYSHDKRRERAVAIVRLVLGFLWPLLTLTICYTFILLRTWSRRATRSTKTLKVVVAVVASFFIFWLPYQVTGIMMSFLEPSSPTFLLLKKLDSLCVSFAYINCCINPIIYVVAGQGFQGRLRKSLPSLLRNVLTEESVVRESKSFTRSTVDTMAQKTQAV
The assay is described as follows: β-arrestin recruitment via C5aR1 activation in live CHO-K1 cells (PathHunter), agonist mode. The format is cell-based. The procedure, abridged:
(§1)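 Live CHO-K1 cells expressing β-galactosidase fragments fused to β-arrestin and C5aR1; recruitment is read by fragment complementation. In agonist mode compounds are tested alone; in antagonist mode they compete against recombinant hC5a at EC90. IC50 reported in binned ranges.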
(In general: Arrestin recruitment assays detect the binding of arrestin to an activated receptor.)

Assay [2] has as its target T1, complement C5a receptor 1 (C5aR1). The assay is described as follows: β-arrestin recruitment via C5aR1 activation in live CHO-K1 cells (PathHunter), antagonist mode. In kind it is cell-based. The settings on record: antagonist mode; recombinant hC5a (EC90) as competing natural agonist; live CHO-K1 cells; read-out: [Antagonist] B-arrestin2 recruitment: Average IC50. The procedure, abridged: as §1

pIC50: −log10 of the molar value. Where two headings read alike, the source gives them in different places.

Usually pIC50 stands for the IC50 on a negative log10 scale, so that one unit is a factor of ten.

For `Cc1cnc(F)cc1N1CCC(c2cc3nccnc3n(Cc3ccccc3C(F)(F)F)c2=O)CC1` [compound 26, 7-(1-(2-fluoro-5-methylpyridin-4-yl)piperidin-4-yl)-5-(2-(trifluoromethyl)benzyl)pyrido-[2,3-b]pyrazin-6(5H)-one], the “[Agonist] B-arrestin2 recruitment: Average EC50 (nM)” value (from here on “[Agonist] B-arrestin2 recruitment”) in assay [1] is listed as “Non-Active”. For the same compound, in assay [2], the pIC50 is 5.30 to 6.30.

With `Cc1cccc(F)c1N1CCC(c2cc3nccnc3n(Cc3nccnc3OCC(F)(F)F)c2=O)CC1` [compound 6, 7-(1-(2-Fluoro-6-methylphenyl)piperidin-4-yl)-5-((3-(2,2,2-trifluoroethoxy)pyrazin-2-yl)methyl)pyrido[2,3-b]pyrazin-6(5H)-one], the “[Agonist] B-arrestin2 recruitment” value in assay [1] is “Non-Active”. The pIC50 in assay [2] is over 6.30.

Consider `Cc1cccc(F)c1N1CCN(c2cc3nccnc3n(Cc3nccnc3C(F)(F)F)c2=O)CC1` [compound 24, 7-(4-(2-Fluoro-6-methylphenyl)piperazin-1-yl)-5-((3-(trifluoromethyl)pyrazin-2-yl)methyl)pyrido[2,3-b]pyrazin-6(5H)-one], for which, in assay [1], the “[Agonist] B-arrestin2 recruitment” value is given as “Non-Active”. Further, in assay [2], the negative-log IC50 (pIC50) is 5.30 to 6.30.

Consider `Cc1ccnc(F)c1N1CCC(c2c(C)c3nccnc3n(Cc3ncccc3C(F)(F)F)c2=O)CC1` [compound 62, 7-(1-(2-Fluoro-4-methylpyridin-3-yl)piperidin-4-yl)-8-methyl-5-((3-(trifluoromethyl)pyridin-2-yl)methyl)pyrido[2,3-b]pyrazin-6(5H)-one], for which the “[Agonist] B-arrestin2 recruitment” value in assay [1] is “Non-Active”. Also, the negative-log IC50 (pIC50) in assay [2] was 5.30 to 6.30.

Regarding `Cc1ccc2cc([C@H]3CC[C@H](c4c(C)cccc4F)CC3)c(=O)n(Cc3nccnc3C(F)(F)F)c2n1` [compound 194, 3-((1r,4r)-4-(2-Fluoro-6-methylphenyl)cyclohexyl)-7-methyl-1-((3-(trifluoromethyl)pyrazin-2-yl)methyl)-1,8-naphthyridin-2(1H)-one], the “[Agonist] B-arrestin2 recruitment” value in assay [1] is “Non-Active”. Moreover, the pIC50 in assay [2] is over 6.30.

With `COc1ccnc(F)c1N1CCC(c2cc3nccnc3n(Cc3ccccc3C(F)(F)F)c2=O)CC1` [compound 33, 7-(1-(2-Fluoro-4-methoxypyridin-3-yl)piperidin-4-yl)-5-(2-(trifluoromethyl)benzyl)pyrido[2,3-b]pyrazin-6(5H)-one], the “[Agonist] B-arrestin2 recruitment” value in assay [1] is listed as “Non-Active”. Besides, in assay [2], the pIC50 is 5.30 to 6.30.

In the case of `Cc1cnc2cc([C@H]3CC[C@H](c4c(F)ccc5cnn(C)c54)CC3)c(=O)n(Cc3ncccc3C(F)(F)F)c2n1` [compound 217, 3-Methyl-7-[(1r,4r)-4-(6-fluoro-1-methylindazol-7-yl)cyclohexyl]-5-{[3-(trifluoromethyl)pyridin-2-yl]methyl}pyrido[2,3-b]pyrazin-6-one], the “[Agonist] B-arrestin2 recruitment” value in assay [1] (at 10 μM) is “Non-Active at 10 μM”. The negative-log IC50 (pIC50) in assay [2] is 4.00 to 5.30.

Regarding `Cc1cnc2cc(C3CCN(c4c(C)cccc4F)CC3)c(=O)n(Cc3nccnc3C(F)F)c2n1` [compound 120, 5-((3-(Difluoromethyl)pyrazin-2-yl)methyl)-7-(1-(2-fluoro-6-methylphenyl)piperidin-4-yl)-3-methylpyrido[2,3-b]pyrazin-6(5H)-one], in assay [1], the “[Agonist] B-arrestin2 recruitment” value is “Non-Active”. Moreover, the pIC50 in assay [2] was over 6.30.

With `Cc1cnc2cc([C@H]3CC[C@H](c4cnccc4C(F)F)CC3)c(=O)n(Cc3ncccc3C(F)(F)F)c2n1` [compound 178, 7-((1r,4r)-4-(4-(Difluoromethyl)pyridin-3-yl)cyclohexyl)-3-methyl-5-((3-(trifluoromethyl)pyridin-2-yl)methyl)pyrido[2,3-b]pyrazin-6(5H)-one], in assay [1], the “[Agonist] B-arrestin2 recruitment” value is reported as “Non-Active”. In addition, the negative-log IC50 (pIC50) in assay [2] was over 6.30.

Take `Cc1cnc2cc(C3CCCCC3)c(=O)n(Cc3ncccc3C(F)(F)F)c2n1` [compound 265, 7-Cyclohexyl-3-methyl-5-{[3-(trifluoromethyl)-2-pyridyl]methyl}-1,4,5-triaza-6(5H)-naphthalenone]: in assay [1], the “[Agonist] B-arrestin2 recruitment” value is “Non-Active”. Further, the pIC50 in assay [2] is 5.30 to 6.30.
